This passage reports IC50 results from patent publication US11464770B2, “Anticancer pharmaceutical composition” (NATIONAL CANCER CENTER, priority 2016, dated 2022).

The experiment has as its system colorectal cancer cell lines (e.g. DLD-1, HCT 116, SW620, HCT-15, HCT-8, RKO). As to the kind of experiment: Cell based assay, cell viability (CellTiter-Glo), colorectal cancer cell lines. On the procedure:
Commercially available bladder cancer, prostate cancer, lung cancer, breast cancer, blood cancer, pancreatic cancer, colorectal cancer, brain cancer, neuroblastoma, melanoma, liver cancer, cervical carcinoma, ovarian cancer, renal cancer, and papilloma cell lines were each treated with trypsin-EDTA and cultured, followed by being seeded in each well of a 96 well plate. After 24 hours of treatment at constant temperature, the respective cells were treated with the candidate compound so that a final concentration became 0 to 2 μM. The treated cells were additionally cultured for 72 hours, and cell viability was measured by using an ATP detection method (CellTiter-Glo® Luminescent Cell Viability Assay, Promega).
(Cellular ATP, detected with luciferase, serves as a proxy for viable cell number.)

[1] abbreviates: Homo sapiens, DLD-1, 72 hours treatment, read-out: IC50, colorectal cancer cell line DLD-1.
[2] abbreviates: Homo sapiens, HCT 116, 72 hours treatment, read-out: IC50, colorectal cancer cell line HCT 116.
Setting [3] is: Homo sapiens, HCT-8, 72 hours treatment, read-out: IC50, colorectal cancer cell line HCT-8.
The mark [4] stands for this setting: Homo sapiens, HCT-15, 72 hours treatment, read-out: IC50, colorectal cancer cell line HCT-15.
[5] abbreviates: Homo sapiens, HT-29, 72 hours treatment, read-out: IC50, colorectal cancer cell line HT-29.
Setting [6] is: Homo sapiens, LoVo, 72 hours treatment, read-out: IC50, colorectal cancer cell line LoVo.
The mark [7] stands for this setting: Homo sapiens, SW480, 72 hours treatment, read-out: IC50, colorectal cancer cell line SW480.
[8] abbreviates: Homo sapiens, SW-620, SW620, 72 hours treatment, read-out: IC50, colorectal cancer cell line SW620.
The mark [9] stands for this setting: RKO, 72 hours treatment, read-out: IC50, colorectal cancer cell line RKO.
The mark [10] stands for this setting: Homo sapiens, DLD-1 cells, 72 hours treatment, read-out: IC50, colorectal cancer cell line DLD-1.
Where [11] appears, read: Homo sapiens, HCT 116 cells, 72 hours treatment, read-out: IC50, colorectal cancer cell line HCT 116.
Setting [12] is: Homo sapiens, HCT-8 cells, 72 hours treatment, read-out: IC50, colorectal cancer cell line HCT-8.
[13] abbreviates: Homo sapiens, HCT-15 cells, 72 hours treatment, read-out: IC50, colorectal cancer cell line HCT-15.
Setting [14] is: Homo sapiens, HT-29 cells, 72 hours treatment, read-out: IC50, colorectal cancer cell line HT-29.
Where [15] appears, read: Homo sapiens, LoVo cells, 72 hours treatment, read-out: IC50, colorectal cancer cell line LoVo.
[16] abbreviates: Homo sapiens, RKO cells, 72 hours treatment, read-out: IC50, colorectal cancer cell line RKO.
Setting [17] is: Homo sapiens, SW480 cells, 72 hours treatment, read-out: IC50, colorectal cancer cell line SW480.
Where [18] appears, read: Homo sapiens, SW-620, SW620 cells, 72 hours treatment, read-out: IC50, colorectal cancer cell line SW620.

Read-outs that look alike come from different tables or passages of the source. Bounds are passed on as bounds.

The IC50 is the concentration needed to halve the response being measured.

As for `CC(=O)c1c([S+]([O-])Cc2ccc(C(F)(F)F)o2)[nH]c2c(F)ccc(F)c2c1=O` (stereo not drawn) [Compound 81, 3-acetyl-5,8-difluoro-2-(((5-(trifluoromethyl)furan-2-yl)methyl)sulfinyl)quinolin-4(1H)-one], the half-inhibitory concentration (IC50) by setting is: under setting [1], greater than 2000 nM; under setting [2], greater than 2000 nM; under setting [3], greater than 2000 nM; under setting [4], greater than 2000 nM; under setting [5], greater than 10000 nM; under setting [6], greater than 2000 nM. Further, the IC50 under setting [7] was greater than 2000 nM, the half-maximal inhibitory concentration (IC50) under setting [8] is greater than 2000 nM and the IC50 under setting [9] is greater than 2000 nM.
Regarding `O=C(c1ccccc1)c1c([S+]([O-])Cc2ccc(S(F)(F)(F)(F)F)cc2)[nH]c2c(F)ccc(F)c2c1=O` (stereo not drawn) [Compound 87, 3-benzoyl-5,8-difluoro-2-((4-(pentafluoro--sulfanyl)benzyl)sulfinyl)quinolin-4(1H)-one], the 50% inhibitory concentration (IC50) under setting [10] was greater than 2000 nM; the IC50 under setting [11] was greater than 2000 nM; the IC50 under setting [12] was greater than 2000 nM; the IC50 under setting [13] was greater than 2000 nM; the IC50 under setting [14] was greater than 10000 nM; the IC50 under setting [15] is greater than 2000 nM. The IC50 by setting is: under setting [16], greater than 2000 nM; under setting [17], greater than 2000 nM; under setting [18], greater than 2000 nM.
As for `Cc1cc(C[S+]([O-])c2[nH]c3c(Cl)ccc(Cl)c3c(=O)c2C(=O)C2CC2)no1` (stereo not drawn) [Compound 97, 5,8-dichloro-3-(cyclopropanecarbonyl)-2-(((5-methylisoxazol-3-yl)methyl)sulfinyl)quinolin-4(1H)-one], the IC50 reads like this: under setting [10], 1360 nM; under setting [11], 1250 nM; under setting [12], 1350 nM; under setting [13], 1420 nM; under setting [14], greater than 10000 nM; under setting [15], 1520 nM. For the same compound, the IC50 came to 1270 nM under setting [16], 1690 nM under setting [17] and 1100 nM under setting [18].
For the compound `CSc1c(C(C)=O)c(=O)c2c(Cl)ccc(Br)c2n1S(=O)(=O)c1ccc([N+](=O)[O-])cc1` [Compound 38, 3-acetyl-8-bromo-5-chloro-2-(methylthio)-1-((4-nitrophenyl)sulfonyl)quinolin-4(1H)-one], the IC50 reads like this: under setting [1], greater than 2000 nM; under setting [2], greater than 2000 nM; under setting [3], greater than 2000 nM; under setting [4], greater than 2000 nM; under setting [5], greater than 10000 nM; under setting [6], greater than 2000 nM. Besides, the IC50 under setting [7] was greater than 2000 nM, the IC50 under setting [8] was greater than 2000 nM and the IC50 under setting [9] is greater than 2000 nM.
With `CC(=O)c1c([S+]([O-])Cc2ccc(C(=O)c3ccccc3)cc2)[nH]c2c(Br)ccc(Cl)c2c1=O` (stereo not drawn) [Compound 63, 3-acetyl-2-((4-benzoylbenzyl)sulfinyl)-8-bromo-5-chloroquinolin-4(1H)-one], the IC50 by setting is: under setting [1], greater than 2000 nM; under setting [2], greater than 2000 nM; under setting [3], greater than 2000 nM; under setting [4], greater than 2000 nM; under setting [5], greater than 10000 nM; under setting [6], greater than 2000 nM. Further, the IC50 under setting [7] was greater than 2000 nM, the IC50 under setting [8] was greater than 2000 nM and the IC50 under setting [9] was greater than 2000 nM.
As for `CC(=O)c1c(SCc2ccccc2)[nH]c2c(Br)ccc(Cl)c2c1=O` [Compound 3, 3-acetyl-2-(benzylthio)-8-bromo-5-chloroquinolin-4(1H)-one], the IC50 under setting [1] is greater than 2000 nM; the IC50 under setting [2] is greater than 2000 nM; the IC50 under setting [3] is greater than 2000 nM; the IC50 under setting [4] is greater than 2000 nM; the IC50 under setting [5] is greater than 10000 nM; the IC50 under setting [6] was greater than 2000 nM. The IC50 under setting [7] was greater than 2000 nM, the IC50 under setting [8] was greater than 2000 nM and the IC50 under setting [9] is greater than 2000 nM.
On to `CC(=O)c1c([S+]([O-])C(C)c2ccccc2)[nH]c2c(Br)ccc(Cl)c2c1=O` (stereo not drawn) [Compound 26, 3-acetyl-8-bromo-5-chloro-2-((1-phenylethyl)sulfinyl)quinolin-4(1H)-one], for which the IC50 was greater than 2000 nM under setting [1]; greater than 2000 nM under setting [2]; greater than 2000 nM under setting [3]; greater than 2000 nM under setting [4]; greater than 10000 nM under setting [5]; greater than 2000 nM under setting [6]. In addition, the 50% inhibitory concentration (IC50) reads like this: under setting [7], greater than 2000 nM; under setting [8], greater than 2000 nM; under setting [9], 1790 nM.
Turning to `CC(=O)c1c(SCc2ccc([N+](=O)[O-])cc2)[nH]c2c(Br)ccc(Cl)c2c1=O` [Compound 32, 3-acetyl-8-bromo-5-chloro-2-((4-nitrobenzyl)thio)quinolin-4(1H)-one], the IC50 runs as follows: under setting [1], greater than 2000 nM; under setting [2], greater than 2000 nM; under setting [3], greater than 2000 nM; under setting [4], greater than 2000 nM; under setting [5], greater than 10000 nM; under setting [6], greater than 2000 nM. Also, the IC50 under setting [7] was greater than 2000 nM, the IC50 under setting [8] was greater than 2000 nM and the IC50 under setting [9] was greater than 2000 nM.
Turning to `CC(=O)c1c(SC(C)C)[nH]c2c(Br)ccc(Cl)c2c1=O` [Compound 24, 3-acetyl-8-bromo-5-chloro-2-(isopropylthio)quinolin-4(1H)-one], the IC50 is greater than 2000 nM under setting [1]; greater than 2000 nM under setting [2]; greater than 2000 nM under setting [3]; greater than 2000 nM under setting [4]; greater than 10000 nM under setting [5]; greater than 2000 nM under setting [6]. Further, the IC50 under setting [7] was greater than 2000 nM, the IC50 under setting [8] is greater than 2000 nM and the IC50 under setting [9] was greater than 2000 nM.
Turning to `CC(=O)c1c(SCc2ccccc2)n(C(=O)c2ccc(Br)cc2)c2c(Br)ccc(Cl)c2c1=O` [Compound 23, 3-acetyl-2-(benzylthio)-8-bromo-1-(4-bromobenzoyl)-5-chloroquinolin-4(1H)-one], the IC50 runs as follows: under setting [1], greater than 2000 nM; under setting [2], greater than 2000 nM; under setting [3], greater than 2000 nM; under setting [4], greater than 2000 nM; under setting [5], greater than 10000 nM; under setting [6], greater than 2000 nM. Also, the IC50 runs as follows: under setting [7], greater than 2000 nM; under setting [8], greater than 2000 nM; under setting [9], greater than 2000 nM.
With `COCCNc1ccc(C[S+]([O-])c2[nH]c3c(Br)ccc(Cl)c3c(=O)c2C(C)=O)cn1` (stereo not drawn) [Compound 105, 3-acetyl-8-bromo-5-chloro-2-(((6-((2-methoxyethyl)amino)pyridin-3-yl)methyl)sulfinyl)quinolin-4(1H)-one], the IC50 is, setting by setting: under setting [10], greater than 2000 nM; under setting [11], greater than 2000 nM; under setting [12], greater than 2000 nM; under setting [13], greater than 2000 nM; under setting [14], greater than 10000 nM; under setting [15], greater than 2000 nM. The IC50 is, setting by setting: under setting [16], greater than 2000 nM; under setting [17], greater than 2000 nM; under setting [18], greater than 2000 nM.
As to `CC(=O)c1c([S+]([O-])Cc2ccc(S(F)(F)(F)(F)F)cc2)[nH]c2c(Br)ccc(Cl)c2c1=O` (stereo not drawn) [Compound 68, 3-acetyl-8-bromo-5-chloro-2-((4-(pentafluoro-16-sulfanyl)benzyl)sulfinyl)quinolin-4(1H)-one], the IC50 is 780 nM under setting [1]; 1090 nM under setting [2]; 1300 nM under setting [3]; 980 nM under setting [4]; greater than 2000 nM under setting [5]; greater than 2000 nM under setting [6]. For the same compound, the IC50 runs as follows: under setting [7], 1750 nM; under setting [8], 1660 nM; under setting [9], 1330 nM.
As for `CSc1[nH]c2ccc(F)cc2c(=O)c1C(C)=O` [Compound 8, 1-(6-fluoro-4-hydroxy-2-(methylthio)quinolin-3-yl)ethan-1-one], the IC50 under setting [1] is greater than 2000 nM; the IC50 under setting [2] is greater than 2000 nM; the IC50 under setting [3] was greater than 2000 nM; the IC50 under setting [4] was greater than 2000 nM; the IC50 under setting [5] is greater than 10000 nM; the IC50 under setting [6] was greater than 2000 nM. Besides, the IC50 was greater than 2000 nM under setting [7], greater than 2000 nM under setting [8] and greater than 2000 nM under setting [9].
With `CC(=O)c1c([S+]([O-])Cc2cccc(S(F)(F)(F)(F)F)c2)[nH]c2c(Br)ccc(Cl)c2c1=O` (stereo not drawn) [Compound 77, 3-acetyl-8-bromo-5-chloro-2-((3-(pentafluoro--sulfanyl)benzyl)sulfinyl)quinolin-4(1H)-one], the IC50 runs as follows: under setting [1], 920 nM; under setting [2], 1450 nM; under setting [3], 1700 nM; under setting [4], 1240 nM; under setting [5], greater than 10000 nM; under setting [6], greater than 2000 nM. The concentration for half-maximal inhibition (IC50) reads like this: under setting [7], 1800 nM; under setting [8], 1680 nM; under setting [9], 1290 nM.
